# Laboratory results: ChEMBL document CHEMBL1201862, “PubChem BioAssay data set” (2004)
#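 How tested: cells in 96-well plates exposed to compound for 48 hours at five concentrations. At the GI50, growth is halved.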 Active and inactive are the calls of the source. Cut-off read from the data, not from the text of the source: active = GI50 up to about 1.1 µM and inactive = higher.
# Tests used:
# Test in all cases: growth of human tumour cells (NCI), 48 h
# [1] = test system: BT-549
# [2] = test system: DLD-1
# [3] = test system: DMS-114
# [4] = test system: DMS-273
# [5] = test system: HOP-18
# [6] = test system: LXFL 529
# [7] = test system: SNB-78
# [8] = test system: XF498
# [9] = test system: RXF 631
SMILES,GI50 [1],GI50 [2],GI50 [3],GI50 [6],also measured
C/C=C/[C@H]1O[C@@](O)([C@@H](C)[C@H](O)[C@H](C)[C@H]2OC(=O)/C(OC)=C/C(C)=C/[C@@H](C)[C@@H](O)[C@@H](CC)[C@@H](O)[C@H](C)C/C(C)=C/C=C/[C@@H]2OC)C[C@H](OC2CC(O)C(O)C(C)O2)[C@@H]1C (stereo not given in full),< 0.0075 µM (active),,,,
Cc1cc(=O)n(-c2ccccc2)c(=O)o1,,> 100 µM (inactive),> 100 µM (inactive),> 100 µM (inactive),GI50 [4]: > 100 µM (inactive); GI50 [5]: > 100 µM (inactive); GI50 [7]: > 100 µM (inactive)
O=C(N/N=C/c1ccc([N+](=O)[O-])cc1)Nc1ccc(Br)cc1,> 100 µM (inactive),,,,
Oc1ccc(-c2cc(-c3cc(-c4ccc(O)cc4)no3)on2)cc1,17.8 µM (inactive),,,,
O=C(/N=C(\Nc1ccccc1)SCCS/C(=N/C(=O)c1cccs1)Nc1ccccc1)c1cccs1,,40 µM (inactive),30.2 µM (inactive),46.9 µM (inactive),GI50 [4]: 58.7 µM (inactive); GI50 [8]: 34.4 µM (inactive)
O=C(N/N=C/c1ccc([N+](=O)[O-])cc1)Nc1ccc(C(=O)O)cc1,35.2 µM (inactive),,,,
O=C1NC(=O)c2ccc([N+](=O)[O-])c3cccc1c23,19.2 µM (inactive),,,,
CCOC(=O)N/N=C(\CC)NO,> 100 µM (inactive),,,,
O=c1[nH]c(=O)n([C@@H]2C[C@H](CO)[C@H](O)C2)cc1/C=C/Br,,> 100 µM (inactive),> 100 µM (inactive),> 100 µM (inactive),GI50 [4]: > 100 µM (inactive); GI50 [5]: > 100 µM (inactive); GI50 [9]: > 100 µM (inactive); GI50 [7]: > 100 µM (inactive)
O=C(Nn1c(-c2ccccc2)nc2ccccc2c1=O)c1ccccn1,> 100 µM (inactive),,,,
COC1CCC(OS(C)(=O)=O)C(CO)O1 (stereo not given),,> 100 µM (inactive),,> 100 µM (inactive),GI50 [8]: > 100 µM (inactive)
O=[N+]([O-])C(=C(Sc1ccccc1)Sc1ccccc1)C(Cl)=C(Cl)Cl,1.18 µM (inactive),,,,
CS/C(=N\c1ccccc1Cl)NC(=O)c1ccc(Br)cc1,,> 100 µM (inactive),> 100 µM (inactive),79.4 µM (inactive),GI50 [5]: 25.5 µM (inactive); GI50 [7]: 19.1 µM (inactive); GI50 [8]: 46.2 µM (inactive)
CC12CCC(=O)C[C@H]1CCC(OC=O)C2Br (stereo not given in full),,> 100 µM (inactive),> 100 µM (inactive),> 100 µM (inactive),GI50 [4]: > 100 µM (inactive); GI50 [5]: > 100 µM (inactive); GI50 [8]: > 100 µM (inactive)
O=C1C(Cl)C(c2ccccc2O)N1n1cnc2ccccc2c1=O (stereo not given),,67 µM (inactive),20 µM (inactive),61.1 µM (inactive),GI50 [4]: 63.4 µM (inactive); GI50 [5]: 37 µM (inactive); GI50 [7]: 26.2 µM (inactive); GI50 [8]: 5.32 µM (inactive)
CCc1n[nH]c(=O)n1CCCCCCCCn1c(CC)n[nH]c1=O,> 100 µM (inactive),,,,
COc1cc2c(cc1OC)C1=CCC(c3ccccc3)[N+]1(C)CC2 (stereo not given),> 100 µM (inactive),,,,
O=c1cc(-c2ccccc2)nc(/C=C(\O)c2ccncc2)n1-c1ccccc1,,> 100 µM (inactive),> 100 µM (inactive),> 100 µM (inactive),GI50 [4]: > 100 µM (inactive); GI50 [5]: > 100 µM (inactive); GI50 [7]: > 100 µM (inactive)
COc1cc(OCc2ccc3nc(-c4ccccc4)c(N)nc3c2)cc(OC)c1OC,16.1 µM (inactive),,,,
O=C(O)CN1C=C(C(=O)c2cc3ccccc3n2S(=O)(=O)c2ccccc2)CCC1,83.2 µM (inactive),,,,
N#CC(c1ccccn1)c1nc2ccccc2[nH]1 (stereo not given),,98.9 µM (inactive),51.5 µM (inactive),> 100 µM (inactive),GI50 [7]: > 100 µM (inactive); GI50 [8]: 64.4 µM (inactive)
Nn1c(SCC(=O)NCc2ccccc2)nc2ccccc2c1=O,73.3 µM (inactive),,,,

SMILES,GI50 [1],GI50 [2],GI50 [3],GI50 [6],also measured
CN(C)CC(C)(C)CN1c2ccccc2Sc2ccccc21,14 µM (inactive),,,,
OCC(O)C(OC1OC(CO)C(O)C(O)C1O)c1nn(-c2ccc(F)cc2)c2nc3cc(Cl)c(Cl)cc3cc12 (stereo not given),,> 100 µM (inactive),> 100 µM (inactive),> 100 µM (inactive),GI50 [7]: > 100 µM (inactive); GI50 [8]: > 100 µM (inactive)
COc1cc2c3c(n(Cc4ccccc4)c(=O)c2cc1OC)-c1ccccc1C3=O,> 100 µM (inactive),,,,
Cc1ccc(/C=C2\CNC/C(=C\c3ccc(C)cc3)C2=O)cc1,2.24 µM (inactive),0.34 µM (active),1.86 µM (inactive),1.28 µM (inactive),GI50 [4]: 1.24 µM (inactive); GI50 [5]: > 10 µM (inactive); GI50 [7]: > 100 µM (inactive); GI50 [8]: 2.59 µM (inactive)
Cc1ccccc1NC(=O)/C(=N\NC(N)=S)C(C#N)c1ccccc1 (stereo not given),,> 100 µM (inactive),72.4 µM (inactive),> 100 µM (inactive),GI50 [4]: > 100 µM (inactive); GI50 [5]: > 100 µM (inactive); GI50 [9]: > 100 µM (inactive); GI50 [7]: > 100 µM (inactive)
CCNC(=O)COc1ccc(Cl)cc1Cl,,> 100 µM (inactive),> 100 µM (inactive),> 100 µM (inactive),GI50 [4]: > 100 µM (inactive); GI50 [5]: > 100 µM (inactive); GI50 [9]: > 100 µM (inactive); GI50 [7]: > 100 µM (inactive)
CCO/C=N/C1=C(C#N)C(c2ccc(OC)c(OC)c2)c2c(-c3ccccc3)nn(-c3ccccc3)c2O1 (stereo not given),8.13 µM (inactive),,,,
O=P(O)(O)c1ccc(-c2ccc(I)cc2)cc1,> 100 µM (inactive),,,,
O=C(/C=C/c1ccc(OCC(=O)N2CCN(c3ccccc3)CC2)cc1)c1ccc(Cl)cc1,43.4 µM (inactive),> 100 µM (inactive),> 65.3 µM (inactive),> 92 µM (inactive),GI50 [4]: 55 µM (inactive); GI50 [5]: > 100 µM (inactive); GI50 [9]: 34.8 µM (inactive); GI50 [7]: 18.6 µM (inactive)
O=C(/C=C\Nc1ccccc1O)C(Cl)(Cl)Cl,52.2 µM (inactive),,,,
COc1ccc2[nH]c3c4c(c5cc(C(C)(C)C)ccc5c3c2c1)C(=O)N(c1ccccc1)C4=O,,13.4 µM (inactive),> 100 µM (inactive),> 100 µM (inactive),GI50 [5]: 34.8 µM (inactive); GI50 [7]: > 100 µM (inactive)
Cc1ccc(NC(=O)NC23CC4CC(CC(F)(C4)C2)C3)cc1,,> 100 µM (inactive),46.6 µM (inactive),88.7 µM (inactive),GI50 [4]: 86.3 µM (inactive); GI50 [7]: > 100 µM (inactive); GI50 [8]: > 100 µM (inactive)
C=CCN(C(C)=O)c1cc(OCc2ccccc2)c2c(c1)c(C)cn2S(=O)(=O)c1ccccc1,11.4 µM (inactive),,,,
COc1ccc(C2CC3(c4ccccc4)ON=C(c4ccccc4)N3c3ccccc3S2)cc1 (stereo not given),> 100 µM (inactive),,,,
O=C1Nc2cccc3cc(NCC(O)CCl)cc1c23 (stereo not given),39.9 µM (inactive),,,,
COc1ccc(C(C2=C(O)CC(C)OC2=O)C2=C(O)CC(C)OC2=O)cc1 (stereo not given),,> 100 µM (inactive),> 100 µM (inactive),> 100 µM (inactive),GI50 [4]: > 100 µM (inactive); GI50 [9]: > 100 µM (inactive); GI50 [7]: > 100 µM (inactive)
Cc1ccc(-c2cc(O)c3cc4c(cc3n2)OCO4)cc1,,0.859 µM (active),2.48 µM (inactive),0.748 µM (active),GI50 [4]: 1.35 µM (inactive); GI50 [5]: 3.07 µM (inactive)
CCN(CC)/[N+]([O-])=N/OCOC,> 100 µM (inactive),,,,
CCOC(=O)c1ccc(-c2cc(C)no2)[nH]1,> 100 µM (inactive),,,,
O=C1C2=C(CCCCC2)C2CCCCC12O (stereo not given),,> 100 µM (inactive),> 100 µM (inactive),> 100 µM (inactive),GI50 [4]: > 100 µM (inactive); GI50 [7]: > 100 µM (inactive); GI50 [8]: > 100 µM (inactive)
CC1=C(C(=O)Nc2cccc3c2C(=O)NC3=O)CC(C(=O)Nc2cccc3c2C(=O)NC3=O)=C(C)N1,> 100 µM (inactive),,,,
NC1=NN(c2ccccc2)C(=O)C1C(=O)CCC(=O)Nc1cccc(Cl)c1 (stereo not given),,> 100 µM (inactive),> 100 µM (inactive),> 100 µM (inactive),GI50 [4]: > 100 µM (inactive); GI50 [5]: > 100 µM (inactive); GI50 [7]: > 100 µM (inactive); GI50 [8]: > 100 µM (inactive)

SMILES,GI50 [1],GI50 [2],GI50 [3],GI50 [6],also measured
C=CCc1[nH]c2c(OCc3ccccc3)cc(N(CC=C)C(C)=O)cc2c1C,15.8 µM (inactive),,,,
O=C(N/C(=C\c1ccc([N+](=O)[O-])cc1)c1nc2cc(Cl)ccc2[nH]1)c1ccccc1,,13.5 µM (inactive),16.3 µM (inactive),17.1 µM (inactive),GI50 [7]: 23.8 µM (inactive); GI50 [8]: 15.3 µM (inactive)
O=C(CCSC(CC(=O)c1ccc(Cl)cc1)c1ccc(Cl)cc1)Nc1ccc(Cl)cc1 (stereo not given),13.5 µM (inactive),,,,
COc1ccc2nc(NCN3C(=O)c4ccccc4C3=O)sc2c1,> 100 µM (inactive),,,,
Cc1ccc(C(=O)/C=C2\Nc3ccccc3N=C2NC23CC4CC(CC(C4)C2)C3)cc1,> 10 µM (inactive),,,,
c1ccc2c(c1)nc1ccccn12,> 100 µM (inactive),,,,
CN(NC(=O)c1ccco1)C1=NCCCCN1,> 100 µM (inactive),,,,
CCCC(=O)OCC1OC(n2cc(F)c(=O)[nH]c2=O)CC1O (stereo not given),0.929 µM (active),,,,
CC(C)C1=CC23CCC4C(C)(C(=O)O)CCCC4(C)C2CC1C1C(=O)N(c2ccc(C(=O)O)cc2)C(=O)C13 (stereo not given),> 100 µM (inactive),,,,
COC(c1ccccc1)C(c1ccccc1)N1CCOCC1 (stereo not given),,> 100 µM (inactive),> 100 µM (inactive),> 100 µM (inactive),GI50 [4]: > 100 µM (inactive); GI50 [5]: > 100 µM (inactive); GI50 [7]: > 100 µM (inactive); GI50 [8]: 53 µM (inactive)
Cc1cc(C)c2c(n1)S(=O)(=O)N(CCCN1CCN(c3cccc(Cl)c3)CC1)C(C(=O)c1ccccc1)=C2O,52.6 µM (inactive),,,,
O=C(O)/C(O)=C\C(=O)c1ccc(Br)cc1,> 100 µM (inactive),,,,
N#CC1=C(N)OC2=C(CSc3ccccc32)C1c1ccc(Br)cc1 (stereo not given),10.7 µM (inactive),,,,
Cn1c(C(C#N)c2cc(Cl)ncn2)nc2ccccc21 (stereo not given),> 100 µM (inactive),,,,
Cc1ccccc1NC(=O)/C=N/O,,> 100 µM (inactive),> 100 µM (inactive),> 100 µM (inactive),GI50 [4]: > 100 µM (inactive); GI50 [5]: > 100 µM (inactive)
CCC[C@H]1C(=O)N=C(N)N1C(=O)OCc1ccccc1,> 100 µM (inactive),,,,
c1ccc2sc(SCSc3nc4ccccc4s3)nc2c1,> 100 µM (inactive),,,,
COC(=O)c1c(OC(C)=O)ccc2c1c1c(n2C)C(=O)c2ccccc2C1=O,17 µM (inactive),,,,
CC(=O)OCC1OC(N2C(=O)NC(=O)C3C=C4CCCCC4=CC32)CC1OC(C)=O (stereo not given),> 100 µM (inactive),,,,
CCOC(=O)C1(C#N)C2(C#N)C(N)=NC(ON=C(C)C)(ON=C(C)C)C12C#N (stereo not given),> 100 µM (inactive),,,,
COc1ccc(C2CC(=O)CC(c3ccc(OC)cc3)C23C(=O)NC(=O)NC3=O)cc1 (stereo not given),32.7 µM (inactive),,,,
